Assays:
B-16a-Zellen = assay: DNA synthesis by 3H-thymidine uptake in B-16a cells in vitro; format: cell-based, Mäuse; conditions: 0,1, 1,0, 10 and 25 µg/ml, 4 h and 18 h, Fig. 1, relative to control = 100 %
Excerpt: Die antineoplastische Wirksamkeit wurde in vitro durch Messung der DNS-Synthese sowohl von B-16a- als auch von Lewis-Lungenkarzinom-Zellen durch eine Methode gemessen, der die Thymidin-Aufnahme zugrundeliegt. Zellen, die in Vorbereitung der Zellteilung DNS synthetisieren, sind durch ihre Fähigkeit gekennzeichnet, Thymidin aufzunehmen. Demnach ist die Zell-Proliferation mit der DNS-Synthese verbunden. Wenn die Menge der durch die Tumorzellen synthetisierten DNS vermindert wird, so ist das ein Anzeichen dafür, daß die Zellteilung und damit das Tumorwachstum gehemmt worden ist.
B-16a- und Lewis-Lungenkarzinom-Zellen wurden wie vor- stehend beschrieben erhalten. Die dispergierten Zellen wurden in sterilen 25 ml-Erlenmeyer-Kolben aus Kunststoff auf eine Konzentration von 1 x 10^5 Zellen/ml in MEM verdünnt. Tritium-markiertes Thymidin (^3H) mit einer spezifischen Aktivität von […] (50-80 Ci/mmol) wurde mit […] (2 µCi/ml) zu jedem ml der Zellsuspension hinzugefügt.
Zu einer Reihe von Kolben, die die B-16 - und Lewis-Lungenkarzinom-Zellen enthielten, wurde die Pyrazolon-Verbindung in Mengen von 0,1 , 1,0 , 10 und 25 µg/ml des Gesamtvolumens hinzugefügt. […]

Lewis-Lungen-Karzinom = assay: Tumour incidence and final tumour weight of subcutaneous Lewis lung carcinoma in mice; format: in vivo, C57BL/6J Mäuse; conditions: killed day 22; for Gewicht: final tumour weight
Excerpt: Die antineoplastische Wirksamkeit wurde außerdem durch direkte Messung des Wachstums der Tumorzellen in vitro in Gewebekulturen bestimmt. Diese Methode bedient sich des "Plating" oder Aufimpfens einer bekannten Anzahl von Tumorzellen auf ein Wachstumsmedium und der Bestimmung der Wirkung der Anwesenheit der zu prüfenden Verbindung auf die Tumorzellen-Proliferation. Schließlich wurde die antineoplastische Aktivität in vivo in der Weise bestimmt, daß den Mäusen subkutan Tumorzellen injiziert wurden und das Auftreten von Tumorzellenwachstum sowie das Gewicht der wachsenden Tumorzellen in unbehandelten Kontrolltieren und in mit der Pyrazolon-Verbindung behandelten Tieren bestimmt wurden.
3 mg 3-Methyl-1-[2-(2-naphthyloxy)-ethyl]-2-pyrazolin-5-on wurden in 0,6 ml Ethylalkohol gelöst, und die Lösung wurde mit konzentrierter Natronlauge auf einen pH von 9,5 eingestellt.
Syngeneischen C57BL/6J Wirts-Mäusen wurden 1 x 10^5 Lewis-Lungenkarzinom-Zellen (0,2 ml) subkutan in die Achselhöhlenregion injiziert. Nach einem Zeitraum von 24 Stunden wurde die Pyrazolon-Verbindung 21 Tage lang täglich verabreicht. Die Wirkung der Verabreichung von Theophyllin zusammen mit der Pyrazolon-Verbindung wurde ebenfalls untersucht. Während des Zeitraums wurden die Mäuse unter identischen Bedingungen der Temperatur, Lichteinwirkungsdauer, Ernährung etc. gehalten. Die Mäuse wurden 22 Tage nach der Injektion der Tumorzellen getötet und mittels einer Gesamt-Nekropsie auf die Anwesenheit subkutaner Tumoren untersucht. Vorhandene Tumoren wurden entfernt und auf einer Analysenwaage gewogen.

SMILES: CC1=NN(CCOc2ccc3ccccc3c2)C(=O)C1 [3-Methyl-1-[2-(2-naphthyloxy)-ethyl]-2-pyrazolin-5-on]
- DNS-Synthese (3H-Thymidinaufnahme) (B-16a-Zellen): konzentrationsabhängige Abnahme der DNS-Synthese
- Tumor-Häufigkeit Anzahl (Lewis-Lungen-Karzinom; 0.01 mg daily s.c. for 21 days from 24 h after 10^5 3LL cells s.c.): 3/12
- Tumor-Häufigkeit % (Lewis-Lungen-Karzinom; 0.01 mg daily s.c. for 21 days): 25%
- Tumor-Häufigkeit % (Lewis-Lungen-Karzinom; 0.02 mg daily s.c. for 21 days): 33%
- Tumor-Häufigkeit Anzahl (Lewis-Lungen-Karzinom; 0.02 mg daily s.c. for 21 days): 4/12
- Tumor-Häufigkeit % (Lewis-Lungen-Karzinom; 0.08 mg daily s.c. for 21 days): 8%
- Tumor-Häufigkeit Anzahl (Lewis-Lungen-Karzinom; 0.08 mg daily s.c. for 21 days): 1/12
- Gewicht (Lewis-Lungen-Karzinom; 0.01 mg daily s.c. for 21 days): 0.74 ± 0.46 mg
- Gewicht (Lewis-Lungen-Karzinom; 0.02 mg daily s.c. for 21 days): 0.49 ± 0.27 mg
- Gewicht (Lewis-Lungen-Karzinom; 0.08 mg daily s.c. for 21 days): 0.16 mg

From patent EP0062319A1, “3-Methyl-1-(2-(3-naphthyloxy)-ethyl)-2-pyrazolin-5-one for the treatment of the metastasis and growth of tumour cells” (BAYER AG, priority 1981, dated 1982)
